Paper PMC9077470 (RSC Advances, 2018)
“Also recorded” adds a separate entry of the source.

Legend:
[1] = In vivo incubation in the colon of rats; settings: injected into tied rat colon, 6 h
Method: 6 hours later, rats were sacrificed and their colon contents were separated and homogenized in 40 mL of phosphate buffer (pH 7.4). The homogenate was sonicated for 5 min and centrifuged at 13 000 rpm for 5 min, then 0.2 mL of the supernatant was collected and mixed with 0.8 mL of methanol. Finally, samples were centrifuged, filtered and analyzed by HPLC. The residual contents of each prodrug in colon contents were calculated, and the hydrolysis ratio was calculated by the following equation: [drawing 2] where Wr is the residual amount of prodrugs in the colon contents and Wi is the initial amount of prodrugs that administered to rats.

[2] = test system: SOD, MDA, GSH, GSH-Px in colonic tissues; assay: TNBS-induced colitis: levels of SOD, MDA, GSH and GSH-Px in colonic tissues; assay type: in vivo, mice; settings: for GSH-Px activities in the colon / MDA levels in the colon / SOD activities in the colon / levels of GSH in the colon: vs TNBS group; for GSH-Px activities in the colon / MDA levels in the colon / SOD activities in the colon / levels of GSH in the colon / effect on decreasing the MDA level, compared with positive control: p < 0.01; for effect on increasing GSH, compared with positive control / effect on increasing GSH-Px, compared with positive control / effect on increasing SOD, compared with positive control / effect on decreasing the MDA level, compared with positive control: vs positive control
Method: Colitis was induced according to the previous study.[18,19] Briefly, after 12 h of fasting, mice were anesthetized with intraperitoneal pentobarbital sodium (35 mg kg^-1) before the induction of colitis. 0.1 mL of 50% (v/v) ethanol contained 2.5% (v/v) TNBS was instilled into the colon 3.5-4 cm from the anus by a gavage needle. The mice were kept in a head-down position for 30 s to prevent leakage of the intracolonic instillation. Mice in the control group received normal saline instead of TNBS solution, a physical mixture of 5-ASA and sodium butyrate was used as the positive control. […] The treatments were given once daily for 5 continuous days starting 24 hours after the induction of colitis. Colon tissue samples were homogenized with normal saline, the homogenate (10%, w/w) was centrifuged at 13 000 rpm for 15 min, and the resulting supernatant was diluted to 1% (w/w) for further assay. The protein levels of the colon homogenate were detected by a BCA protein assay kit. Then the activities of SOD and GSH-Px, and the levels of MDA and GSH of samples in each group were measured by the assay kits according to the provider's instructions.

[3] = test system: TNBS-induced experimental colitis; assay: TNBS-induced colitis: body weight, survival rates, overall effect; assay type: in vivo, mice; settings: for body weight of mice / therapeutic effects on the TNBS-induced UC (overall): TNBS colitis mice; for body weight of mice: once daily 5 days, equivalent to 100 mg kg^−1 5-ASA; for therapeutic effects on the TNBS-induced UC (overall): Ols-DB as enema, others i.g.; for ameliorative effects on TNBS-induced colitis (overall), compared with positive control: vs positive control, oral administration
Method: Colitis was induced according to the previous study.[18,19] Briefly, after 12 h of fasting, mice were anesthetized with intraperitoneal pentobarbital sodium (35 mg kg^-1) before the induction of colitis. 0.1 mL of 50% (v/v) ethanol contained 2.5% (v/v) TNBS was instilled into the colon 3.5-4 cm from the anus by a gavage needle. The mice were kept in a head-down position for 30 s to prevent leakage of the intracolonic instillation. Mice in the control group received normal saline instead of TNBS solution, a physical mixture of 5-ASA and sodium butyrate was used as the positive control. […] The treatments were given once daily for 5 continuous days starting 24 hours after the induction of colitis. After the induction of colitis, the body weight of each mice was recorded daily, and the curves of weight changes for each group were drawn to evaluate the TNBS-induced colitis. Meanwhile, the death of mice in each group was recorded daily and the final survival rates of mice were calculated.

[4] = In vitro incubation with stomach contents of rats; assay type: in vitro ADME; settings: rat stomach contents homogenate, pH 1.2, 37 °C, after 2 h of incubation
Method: After anesthetized with diethyl ether, rats were sacrificed and their contents of stomach and small intestine were collected and homogenized respectively, the homogenate was diluted with buffer solution (pH 1.2 for stomach contents, pH 6.8 for small intestine contents) to 20% (w/v). […] After 0.25, 0.5, 1.0, 1.5, 2.0, 3.0 and 4.0 h of incubation, 200 μL of samples were collected and replaced with the same volume of blank homogenate, then samples were centrifuged at 13 000 rpm for 5 min, filtered with membrane filter, and analyzed by HPLC. The residual contents of each prodrug in homogenate were calculated and the hydrolysis curves were drawn.

[5] = test system: TNBS-induced experimental colitis; assay: TNBS-induced colitis: disease activity index (DAI); assay type: in vivo, mice; settings: for DAI, compared with positive control: vs positive control (5-ASA + sodium butyrate)
Method: Colitis was induced according to the previous study.[18,19] Briefly, after 12 h of fasting, mice were anesthetized with intraperitoneal pentobarbital sodium (35 mg kg^-1) before the induction of colitis. 0.1 mL of 50% (v/v) ethanol contained 2.5% (v/v) TNBS was instilled into the colon 3.5-4 cm from the anus by a gavage needle. The mice were kept in a head-down position for 30 s to prevent leakage of the intracolonic instillation. Mice in the control group received normal saline instead of TNBS solution, a physical mixture of 5-ASA and sodium butyrate was used as the positive control. […] The treatments were given once daily for 5 continuous days starting 24 hours after the induction of colitis. DAI is ranged from 0 to 4 and it is the sum of scores given for body weight loss, stool consistency and presence or absence of fecal blood. The fecal occult blood of mice was evaluated by the ο-tolidine method.[22] A small amount of feces samples were smeared on a white plate. 2-3 drops of ο-tolidine solution (10 g L^-1, dissolved in acetic acid) were added into samples and mixed evenly. Then 2-3 drops of 3% H2O2 solution were added into the mixture, meanwhile, start the time and observe immediately. Scored as: normal, weak positive, green to light green developing over 2 min; +, positive, greenish-blue to deep green developing within 1 min; ++, positive, blue to bluish-green developing within 5-20 s; +++, very strong positive, intense blue color developing immediately.[23]

[6] = test system: TNBS-induced experimental colitis; assay: TNBS-induced colitis: colon index and colonic damage score (CDS); assay type: in vivo, mice; settings: for colon index, compared with positive control: vs positive control (5-ASDB p < 0.05, Ols-DBP p < 0.01); for CDS, compared with positive control: vs positive control, p < 0.05
Method: Colitis was induced according to the previous study.[18,19] Briefly, after 12 h of fasting, mice were anesthetized with intraperitoneal pentobarbital sodium (35 mg kg^-1) before the induction of colitis. 0.1 mL of 50% (v/v) ethanol contained 2.5% (v/v) TNBS was instilled into the colon 3.5-4 cm from the anus by a gavage needle. The mice were kept in a head-down position for 30 s to prevent leakage of the intracolonic instillation. Mice in the control group received normal saline instead of TNBS solution, a physical mixture of 5-ASA and sodium butyrate was used as the positive control. […] The treatments were given once daily for 5 continuous days starting 24 hours after the induction of colitis. At the end of the experiment, all mice were sacrificed and their entire colons were excised, opened longitudinally and washed carefully with normal saline. After dried with filter papers, colons were weighted and the length of colons was measured and recorded. The colon index was calculated as follows:Colon index (g dm^-1) = weight of colon/length of colon The colonic damage score (CDS) of mice in each group was evaluated according to the following criteria: 0, no ulcer and colitis; 1, no ulcer, local congestion; 2, ulcers, no local congestion; 3, ulcer and colitis at only one site; 4, ulcer and colitis at more than one sites; 5, over 2 cm of ulcer surface.[24]

SMILES | hydrolysis ratio after in vivo incubation in rat colons [1] | GSH-Px activities in the colon [2] | MDA levels in the colon [2] | SOD activities in the colon [2] | levels of GSH in the colon [2] | effect on increasing GSH, compared with positive control [2] | effect on increasing GSH-Px, compared with positive control [2] | effect on increasing SOD, compared with positive control [2] | effect on decreasing the MDA level, compared with positive control [2] | body weight of mice [3] | therapeutic effects on the TNBS-induced UC (overall) [3] | ameliorative effects on TNBS-induced colitis (overall), compared with positive control [3] | residual content of prodrug in stomach contents [4] | DAI, compared with positive control [5] | colon index, compared with positive control [6] | CDS, compared with positive control [6] | DAI ([5]; TNBS colitis mice, once daily 5 days, equivalent to 100 mg kg^−1 5-ASA, course after treatment)
CCCC(=O)OCC(COC(=O)CCC)OC(=O)c1cc(N=Nc2ccc(O)c(C(=O)OC(COC(=O)CCC)COC(=O)CCC)c2)ccc1O [Ols-DBP] | almost hydrolyzed completely | increased | significantly decreased | increased | significantly higher | significantly greater effects | significantly greater effects | significantly greater effects | significantly greater effects | slight weight loss at first and gained gradually from the 2nd day | certain therapeutic effects | significantly greater than the positive control | 57.5% | better effects than the positive control | significantly better than the positive control | significantly greater than the positive control | 
CCCC(=O)Oc1ccc(N=Nc2ccc(OC(=O)CCC)c(C(=O)O)c2)cc1C(=O)O [Ols-DB, 3,3′-azobis(6-hydroxybenzoicacid)dibutyrate] | almost hydrolyzed completely | increased | significantly decreased | increased | significantly higher |  |  |  |  | slight weight loss at first and gained gradually from the 2nd day | just as effective as 5-ASDB and Ols-DBP; also recorded: certain therapeutic effects |  | almost completely decomposed | better effects than the positive control |  | significantly greater than the positive control | most significant effects in the first 4 days
CCCC(=O)OCC(COC(=O)CCC)OC(=O)c1cc(N)ccc1O [5-ASDB, 2-(1,3-dibutyroxypropyl)-5-aminosalicylate] | almost hydrolyzed completely | increased | significantly decreased | increased | significantly higher | significantly greater effects | significantly greater effects | significantly greater effects | significantly greater effects | slight weight loss at first and gained gradually from the 2nd day | certain therapeutic effects | significantly greater than the positive control | 63.3% | better effects than the positive control | significantly better than the positive control | significantly greater than the positive control | 
